Assay results from patent US10800785B2, “Substituted pyrrolo[2,3-d]pyridazin-4-ones and pyrazolo[3,4-d]pyridazin-4-ones as protein kinase inhibitors” (Shanghai Fochon Pharmaceutical Co., Ltd., priority 2016, dated 2020).

The molecules below were run on DOHH2 cells (assay: Cell proliferation assay (MTS) in DOHH2 cells, mechanism-based assay for BTK inhibition). Details: Homo sapiens, DOHH-2, 120 h incubation, 5000 cells/well.
Text: Cell Proliferation Assays
MTS testing kit was purchased from Promega. The DMEM, Fetal bovine serum and Penicillin-Streptomycin were purchased from Gibco. Dimethyl sulfoxide (DMSO) was purchased from Sigma.
To investigate whether a compound is able to inhibit the activity of BTK in cells, a mechanism-based assay using DOHH2 (DSMZ catalog#: ACC47) and Mino (ATCC® Number CRL-3000™) cells was developed. In this assay, inhibition of BTK was detected by the inhibition of DOHH2 and Mino cell proliferations. DOHH2 or Mino cells were cultured in culture flasks to 40-80% confluence in RPMI-1640 plus 10% fetal bovine serum. C ells were collected and plated onto 96-well plates at desired cell density (DOHH2: 5000 cells/well; Mino: 10000 cells/well). Plates were incubated overnight at 37° C., with 5% CO2 to adhere. Compounds were added to the plates, and the final compound concentrations were 10000, 3333, 1111, […], 41, 14, 4.6 and 1.5 nM. Plates were placed at 37° C., with 5% CO2 for 120 h (DOHH2) or 72 h (Mino). 20 μl MTS/100 μl medium mixture solution were added to each well and the plates were incubated for exactly 2 hours. The reaction was stopped by adding 25 μl 10% SDS per well.
Select compounds prepared as described above were assayed according to the biological procedures described herein.

First: C=CC(=O)N1CCC[C@H](c2cn(-c3ccc(Oc4ccccc4F)cc3)c3c(N)n[nH]c(=O)c23)C1 [Example 35, (R)-3-(1-acryloylpiperidin-3-yl)-7-amino-1-(4-(2-fluorophenoxy)phenyl)-1,5-dihydro-4H-pyrrolo [2,3-d]pyridazin-4-one]
Second: C=CC(=O)N1CCC[C@H](c2cn(-c3ccc(Oc4cccc(F)c4F)cc3)c3c(N)n[nH]c(=O)c23)C1 [Example 38, (R)-3-(1-acryloylpiperidin-3-yl)-7-amino-1-(4-(2,3-difluorophenoxy)phenyl)-1,5-dihydro-4H-pyrrolo[2,3-d]pyridazin-4-one]
The IC50 of the first is 5.3-fold lower: 33 nM for the first, 175 nM for the second. The first is the more potent here.

Going from `C=CC(=O)N1CCC[C@H](c2cn(-c3ccc(Oc4cccc(F)c4)cc3)c3c(N)n[nH]c(=O)c23)C1` [Example 36, (R)-3-(1-acryloylpiperidin-3-yl)-7-amino-1-(4-(3-fluorophenoxy)phenyl)-1,5-dihydro-4H-pyrrolo [2,3-d]pyridazin-4-one] to `C=CC(=O)N1CCC[C@H](c2cn(-c3ccc(Oc4cc(F)cc(F)c4)cc3)c3c(N)n[nH]c(=O)c23)C1` [Example 40, (R)-3-(1-acryloylpiperidin-3-yl)-7-amino-1-(4-(3,5-difluorophenoxy)phenyl)-1,5-dihydro-4H-pyrrolo[2,3-d]pyridazin-4-one], the IC50 falls from 585 nM to 375 nM (1.6-fold). The second is the more potent here.

Going from `C=CC(=O)N1CCC[C@H](c2cn(-c3ccc(Oc4c(F)cccc4F)cc3)c3c(N)n[nH]c(=O)c23)C1` [Example 39, (R)-3-(1-acryloylpiperidin-3-yl)-7-amino-1-(4-(2,6-difluorophenoxy)phenyl)-1,5-dihydro-4H-pyrrolo[2,3-d]pyridazin-4-one] to `C=CC(=O)N1CC[C@H](c2nn(-c3ccc(Oc4c(F)cccc4F)cc3)c3c(N)n[nH]c(=O)c23)C1` [Example 51, (S)-3-(1-acryloylpyrrolidin-3-yl)-7-amino-1-(4-(2,6-difluorophenoxy)phenyl)-1,5-dihydro-4H-pyrazolo[3,4-d]pyridazin-4-one], the IC50 rises from 31 nM to 215 nM (6.9-fold).

First: C=CC(=O)N1CC[C@@H](c2nn(-c3ccc(Oc4ccccc4F)cc3)c3c(N)n[nH]c(=O)c23)C1 [Example 41, (R)-3-(1-acryloylpyrrolidin-3-yl)-7-amino-1-(4-(2-fluorophenoxy)phenyl)-1,5-dihydro-4H-pyrazolo[3,4-d]pyridazin-4-one]
Second: C=CC(=O)N1CC[C@H](c2nn(-c3ccc(Oc4ccccc4F)cc3)c3c(N)n[nH]c(=O)c23)C1 [Example 47, (S)-3-(1-acryloylpyrrolidin-3-yl)-7-amino-1-(4-(2-fluorophenoxy)phenyl)-1,5-dihydro-4H-pyrazolo[3,4-d]pyridazin-4-one]
The IC50 of the first is 2.4-fold higher: 146 nM for the first, 60 nM for the second.

Going from `C=CC(=O)N1CC[C@@H](c2nn(-c3ccc(Oc4cccc(F)c4F)cc3)c3c(N)n[nH]c(=O)c23)C1` [Example 44, (R)-3-(1-acryloylpyrrolidin-3-yl)-7-amino-1-(4-(2,3-difluorophenoxy)phenyl)-1,5-dihydro-4H-pyrazolo[3,4-d]pyridazin-4-one] to `C=CC(=O)N1CC[C@H](c2nn(-c3ccc(Oc4cccc(F)c4F)cc3)c3c(N)n[nH]c(=O)c23)C1` [Example 50, (S)-3-(1-acryloylpyrrolidin-3-yl)-7-amino-1-(4-(2,3-difluorophenoxy)phenyl)-1,5-dihydro-4H-pyrazolo[3,4-d]pyridazin-4-one], the IC50 rises from 113 nM to 678 nM (6-fold).

Compared with `C=CC(=O)N1CC[C@@H](c2nn(-c3ccc(Oc4cc(F)cc(F)c4)cc3)c3c(N)n[nH]c(=O)c23)C1` [Example 46, (R)-3-(1-acryloylpyrrolidin-3-yl)-7-amino-1-(4-(3,5-difluorophenoxy)phenyl)-1,5-dihydro-4H-pyrazolo[3,4-d]pyridazin-4-one], `C=CC(=O)N1CC[C@H](c2nn(-c3ccc(Oc4cc(F)cc(F)c4)cc3)c3c(N)n[nH]c(=O)c23)C1` [Example 52, (S)-3-(1-acryloylpyrrolidin-3-yl)-7-amino-1-(4-(3,5-difluorophenoxy)phenyl)-1,5-dihydro-4H-pyrazolo[3,4-d]pyridazin-4-one] is 5.4-fold higher in IC50: 59 nM for the first, 321 nM for the second. The first is the more potent here.
